Assay results reported in patent publication US6784201B2, “Benzothiepines having activity as inhibitors of ileal bile acid transport and taurocholate uptake” (G.D. Searle & Company, priority 1994, dated 2004).
Structures can show the parent of a compound that is named as a salt.

Assays:
fecal bile acid (FBA) = test: Rat gavage assay (fecal bile acid increase); type: in vivo
Method: Male Wister rats (275-300 g) are administered IBAT inhibitors using an oral gavage procedure. Drug or vehicle (0.2% Tween 80 in water) is administered once a day (9:00-10:0 a.m.) for 4 days at varying dosages in a final volume of 2 mL per kilogram of body weight. Total fecal samples are collected during the final 48 hours of the treatment period and analyzed for bile acid content using an enzymatic assay as described below. Compound efficacy is determined by comparison of the increase in fecal bile acid (FBA) concentration in treated rats to the mean FBA concentration of rats in the vehicle group.
Measurement of Fecal Bile Acid Concentration (FBA)
Total fecal output from individually housed hamsters was collected for 24 or 48 hours, dried under a stream of nitrogen, pulverized and weighed. Approximately 0.1 gram was weighed out and extracted into an organic solvent (butanol/water). Following separation and drying, the residue was dissolved in methanol and the amount of bile acid present was measured enzymatically using the 3α-hydroxysteroid steroid dehydrogenase reaction with bile acids to reduce NAD. (Reference: Mashige, F., et al. (1981) Clin. Chem. 27, 1352).

human IBAT = biological target: T1, human IBAT (Homo sapiens, UniProt Q12908); test: In vitro assay of IBAT-mediated uptake of [14C]-taurocholate (TC) in H14 cells; type: cell-based; settings: In Vitro Taurocholate Uptake, Table 10; read-out: Human TC IC50
T1 construct: expressed in transfected cells; host or cells: Baby hamster kidney (BHK) cells, clone H14
T1 sequence (Q12908 1-348): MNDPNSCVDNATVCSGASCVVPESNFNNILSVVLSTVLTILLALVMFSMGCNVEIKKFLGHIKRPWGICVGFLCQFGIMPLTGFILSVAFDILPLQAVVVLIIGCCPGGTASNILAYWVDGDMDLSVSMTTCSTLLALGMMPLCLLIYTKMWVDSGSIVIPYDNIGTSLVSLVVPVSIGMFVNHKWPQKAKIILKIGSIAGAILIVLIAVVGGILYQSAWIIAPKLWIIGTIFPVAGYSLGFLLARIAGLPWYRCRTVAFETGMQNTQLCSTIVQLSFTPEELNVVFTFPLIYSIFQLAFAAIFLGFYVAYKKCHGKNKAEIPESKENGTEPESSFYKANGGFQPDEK
Method in brief: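 BHK cells stably expressing human IBAT (H14) were incubated 2 h at 37° C with compound and 3 μM final [14C]-taurocholate in DMEM (4.5 g/L glucose) plus 0.2% fatty acid-free BSA. After cold PBS washes, cell-associated radioactivity was measured by scintillation counting.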

Structure (SMILES)	IC50 (human IBAT) [nM]	Delta (micromoles fecal bile acid per day) (fecal bile acid (FBA); dose 5 mg/kg/day)	Delta (micromoles fecal bile acid per day) (fecal bile acid (FBA); dose .04 mg/kg/day)	Delta (micromoles fecal bile acid per day) (fecal bile acid (FBA); dose .2 mg/kg/day)	Delta (micromoles fecal bile acid per day) (fecal bile acid (FBA); dose 2 mg/kg/day)	Delta (micromoles fecal bile acid per day) (fecal bile acid (FBA); dose .016 mg/kg/day)	Delta (micromoles fecal bile acid per day) (fecal bile acid (FBA); dose .08 mg/kg/day)	Delta (micromoles fecal bile acid per day) (fecal bile acid (FBA); dose .4 mg/kg/day)
CCCCC1(CCCC)CS(=O)(=O)c2ccc(N(C)C)cc2[C@@H](c2ccc(OCCCCC(=O)O)cc2)[C@H]1O [Example 1404, (4R-cis)-5-[4-[3,3-Dibutyl-7-(dimethylamino)-2,3,4,5-tetrahydro-4-hydroxy-1,1-dioxido-1-benzothiepin-5-yl]phenoxy]pentanoic Acid]	10	93.7 micromoles fecal bile acid per day	33.5 micromoles fecal bile acid per day	59.1 micromoles fecal bile acid per day	–	–	–	–
CCCCC1(CCCC)CS(=O)(=O)c2ccc(N(C)C)cc2[C@@H](c2ccc(OCCCC[N+](CC)(CC)CC)cc2)[C@H]1O.CS(=O)(=O)[O-] [Example 1410, (4R-cis)-4-[4-[3,3-Dibutyl-7-(dimethylamino)-2,3,4,5-tetrahydro-4-hydroxy-1,1-dioxido-1-benzothiepin-5-yl]phenoxy]-N,N,N-triethyl-1-butanaminium]	2	–	–	–	26.2 micromoles fecal bile acid per day	20.4 micromoles fecal bile acid per day	18.5 micromoles fecal bile acid per day	36.5 micromoles fecal bile acid per day
CCCCC1(CCCC)CS(=O)(=O)c2ccc(N(C)C)cc2[C@@H](c2ccc(OCCCC[n+]3cccc(O)c3)cc2)[C@H]1O.CS(=O)(=O)[O-] [Example 1411, (4R-cis)-1-[4-[4-[3,3-Dibutyl-7-(dimethylamino)-2,3,4,5-tetrahydro-4-hydroxy-1,1-dioxido-1-benzothiepin-5-yl]phenoxy]butyl]-3-hydroxypyridinium, methanesulfonate (Salt)]	2	–	–	–	63.4 micromoles fecal bile acid per day	22.3 micromoles fecal bile acid per day	33 micromoles fecal bile acid per day	54.1 micromoles fecal bile acid per day

The remaining compounds from weak to strong by IC50 (human IBAT), led by results:

IC50 (human IBAT) [nM]	Structure (SMILES)	Delta (micromoles fecal bile acid per day) (fecal bile acid (FBA); dose 5 mg/kg/day)	Delta (micromoles fecal bile acid per day) (fecal bile acid (FBA); dose .04 mg/kg/day)	Delta (micromoles fecal bile acid per day) (fecal bile acid (FBA); dose .2 mg/kg/day)	Delta (micromoles fecal bile acid per day) (fecal bile acid (FBA); dose 2 mg/kg/day)	Delta (micromoles fecal bile acid per day) (fecal bile acid (FBA); dose .016 mg/kg/day)	Delta (micromoles fecal bile acid per day) (fecal bile acid (FBA); dose .08 mg/kg/day)	Delta (micromoles fecal bile acid per day) (fecal bile acid (FBA); dose .4 mg/kg/day)
15	CCCCC1(CCCC)CS(=O)(=O)c2ccc(N(C)C)cc2[C@@H](c2ccc(OCCCCCN(CC)CC)cc2)[C@H]1O [Example 1414, (4R-cis)-3,3-Dibutyl-5-[4-[[5-(diethylamino)pentyl]oxy]phenyl]-7-(dimethylamino)-2,3,4,5-tetrahydro-1-benzothiepin-4-ol 1,1-dioxide]	45.2 micromoles fecal bile acid per day	14.3 micromoles fecal bile acid per day	39.5 micromoles fecal bile acid per day	41.5 micromoles fecal bile acid per day	3.8 micromoles fecal bile acid per day	29 micromoles fecal bile acid per day	33.7 micromoles fecal bile acid per day
4	CCCCC1(CCCC)CS(=O)(=O)c2ccc(N(C)C)cc2[C@@H](c2ccc(OCCC[N+]34CCN(CC3)CC4)cc2)[C@H]1O [Example 1406, (4R-cis)-1-[3-[4-[3,3-Dibutyl-7-(dimethylamino)-2,3,4,5-tetrahydro-4-hydroxy-1,1-dioxido-1-benzothiepin-5-yl]phenoxy]propyl]-4-aza-1-azoniabicyclo[2.2.2]octane, Methanesulfonate (Salt)]	–	–	–	47.8 micromoles fecal bile acid per day	−8.5 micromoles fecal bile acid per day	12.8 micromoles fecal bile acid per day	31.6 micromoles fecal bile acid per day
